From patent publication US20240180955A1, “FIBER SUPPLEMENTATION PROTECTS FROM ANTIBIOTIC-INDUCED GUT MICROBIOME DYSBIOSIS BY MODULATING REDOX METABOLISM” (Brown University, priority 2022, published 2024)
Structures can show the parent of a compound that is named as a salt.

Key:
murine gut microbiome = assay: Oats diet with amoxicillin challenge, 16S rRNA sequencing of fecal pellets (Example 11); type: in vivo, C57BL/6J mice; settings: Day 5, across each diet group
Description: In Example 11, mice were fed LabDiet 5001 (LD01; LabDiet, St. Louis, MO, USA) feed pellets for a 2-week habituation period. For experimental diets, a custom base diet reflecting standard mouse chow fiber content was designed (Envigo-Teklad, Madison, WI, USA). The base diet modifies AlN-93G (TD.180901) by removing all cellulose and reducing cornstarch content while adjusting micro- and macronutrient contents so the diet could be an 80% base for 20% (wt/wt) supplementation with other carbon sources. Buffalo cornstarch (Ingredion Incorporated, IL, USA) was used to increase host accessibility and reduce cornstarch availability in the cecum and lower gastrointestinal tract. […]
In Example 11, total DNA and RNA was liberated from bacteria by bead-bashing fecal or cecum samples for 5 min on a Bead Ruptor 96 (Omni International, Kennesaw, GA). […] Nucleic acids were eluted in nuclease-free water and measured using the double-stranded DNA high sensitivity (dsDNA-HS) or RNA-HS kits on a Qubit 3.0 fluorometer (Thermo Fisher Scientific, Waltham, MA, USA).
In Example 11, the 16S rRNA gene V4 region was amplified from fecal total DNA using barcoded 515F forward and indexed 806R reverse primers as described by Parada, Needham, & Fuhrman, Environ. […] Amplicons were verified by gel electrophoresis, measured on the Qubit 3.0 and pooled in equimolar concentrations. […]

[1] = Redox potential (eH) and pH measurements of cecal contents; type: in vivo, C57BL/6J mice; settings: mice on standard chow diet
Protocol: Mouse assays. C57BL/6J mice following the habituation period were given one week to acclimate to the control 0-fiber diet with 20% (w/w) glucose. After this diet acclimation period, mice were randomized into new cages for each diet/antibiotic condition. Amoxicillin was administered via drinking water (25 mg/kg/day) ad libitum for the specified timepoints. All drinking water was filter-sterilized before administration. Fecal samples were collected at the specified timepoints and stored at −20° C. until nucleic acid extraction. Cecum contents were collected directly into bead-bashing tubes with DNA/RNA shield (Zymo Research, Irvine, CA, USA) and stored at −80° C. for nucleic acid extraction. […]
Redox potential and pH measurements. Redox potential was measured according to a modified protocol from Husson (2012); Husson et al. (2016) with an Ag/AgCl Reference electrode (Radiometer analytical E21M002, Radiometer Analytical Pt plate electrode 5×5 mm M241 Pt), and a voltmeter. […] The samples were blinded and measured in random order. […]
The platinum electrode was inserted into each sample. […] The same cecal extracts were used to measure pH using a PH meter and for subsequent validation with ATP assays, 16S rRNA sequencing and quantitative polymerase chain reaction (qPCR) bacterial load. […]

E. coli (MG1655) = assay: NAD+/NADH reporter: E. coli reporter assay; type: cell-based, Escherichia coli
Protocol: NAD+/NADH reporter: E. coli reporter assay. The NAD+/NADH reporter plasmid (Liu et al., 2019) was transformed into E. coli (MG1655) for growth and fluorescence assays. Overnight cultures of E. coli were diluted 1:1000 in fresh Luria Broth. The diluted cultures were allowed to grow to 0.2 OD before treatment with amoxicillin and metformin. Fluorescence and growth (in OD) were measured in parallel using two plate readers. Data is shown with fluorescence normalized to growth and as separate growth and fluorescence curves.
This ratio is a stand in for cellular bioenergetics with a high ratio indicative of increased catabolism
The inventors then treated these bacteria with metformin and measured their growth and fluorescence. […] Dwyer et al. (2014). […] Stynen et al. (2018).

[2] = Mass spectrometry for metformin measurement in serum, liver and cecum; type: in vivo, C57BL/6J mice; settings: low-fiber glucose diet with 100 mg/kg metformin hydrochloride, five days, LC/MS
Protocol: (§1) Metformin in vivo supplementation. Metformin hydrochloride (Fisher Scientific, Waltham, MA, USA) was added to powdered mouse diet at 100 mg/kg (w/w) or 0.1% in the glucose diet and homogenized before administration to mice via feeding jars. In the chow diet metformin was added 50 mg/kg (w/w) or 0.05%.
Mass spectrometry for metformin measurement. Plasma, liver and cecal samples were collected for from the sacrificed mice in the two metformin supplementation assays (n=6 mice per group, twenty-four mice/assay). The liver was perfused with phosphate-buffered saline upon collection and the tissue was homogenized with reverse osmosis-purified water at 1 mg/10 μL using a Bead Ruptor at speed 30 for five minutes. Supernatants from the homogenate was collected after centrifugation at 2000×g for five minutes to pellet beads. Cecal contents were also homogenized with reverse osmosis-purified water at 1 mg/10 μL, and supernatants were used for analysis. Metformin extraction and mass spec protocol modified from Chaudhari et al. (2020). For metformin extraction, 30 μL of cecal/tissue homogenates or plasma were added to 70 μL of D6-metformin ([sequence]) at 250 μM concentration in methanol. […]
Metformin in biological samples after spiking with D6-metformin ([sequence]) and extraction was quantitated with HPLC-MS on an Ultimate 3000, Dionex coupled to Q Executive Classic (Thermo Fisher) with ESI interface. […]

[3] = test system: Bacteroides thetaiotaomicron; assay: Amoxicillin kill curve in B. theta; type: cell-based; settings: anaerobic
Protocol: Bacteroides theta was cultured in modified Gifu Anaerobic Media (mGAM, HyServe). […] Anaerobic assays were cultured in a BactronEZ anaerobic chamber (Sheldon Manufacturing, Cornelius, OR, USA) under an atmosphere of 5% H2, 5% N2, and 90% CO2. All bacteria were grown at 37° C.

E. coli = assay: Amoxicillin kill curve in E. coli; type: cell-based, Escherichia coli; settings: aerobic, increasing concentrations of metformin
Protocol: Bacterial strains. Bacteroides thetaiotaomicron (VPI-5482) can be obtained from the American Type Culture Collection (ATCC; Manassas, VA, USA). Bacteroides theta was cultured in modified Gifu Anaerobic Media (mGAM, HyServe). Escherichia coli (MG1655) was cultured in Luria Broth (Fisher Scientific, Waltham, MA, USA). Anaerobic assays were cultured in a BactronEZ anaerobic chamber (Sheldon Manufacturing, Cornelius, OR, USA) under an atmosphere of 5% H2, […]. All bacteria were grown at 37° C.
Amoxicillin kill curves in E. coli and B. theta. Kill Curves for E. coli were done in an aerobic environment and for B. theta in the anaerobic chamber. Overnight cultures s were grown in Luria Broth (E. coli) or mGAM (B. theta). Overnight cultures were diluted 1:100 in fresh media. They were allowed to grow to 0.2 OD before treatment with amoxicillin and metformin. Samples were grown at 37° C. and plated every two hours for six hours in serial dilutions. Colony forming units (CFUs) were measured the following day.
The inventors then tested the survival of bacteria treated with metformin against amoxicillin. […] These assays were conducted aerobically in E. coli.

gut microbiome = assay: Metformin in vivo supplementation during antibiotic treatment, 16S rRNA sequencing of cecal contents; parameters: species or system C57BL/6J mice
Protocol: Mouse assays. C57BL/6J mice following the habituation period were given one week to acclimate to the control 0-fiber diet with 20% (w/w) glucose. After this diet acclimation period, mice were randomized into new cages for each diet/antibiotic condition. Amoxicillin was administered via drinking water (25 mg/kg/day) ad libitum for the specified timepoints. All drinking water was filter-sterilized before administration. Fecal samples were collected at the specified timepoints and stored at −20° C. until nucleic acid extraction. Cecum contents were collected directly into bead-bashing tubes with DNA/RNA shield (Zymo Research, Irvine, CA, USA) and stored at −80° C. for nucleic acid extraction. For the redox potential (eH) and pH measurements, total cecal contents were immediately flash frozen in liquid nitrogen and lyophilized and stored at −80° C. until measurements were taken.
16S rRNA amplicon preparation and sequencing. The 16S rRNA V4 hypervariable region was amplified from total DNA using the barcoded 515F forward primer and the 806R reverse primers from the Earth Microbiome Project (Thompson et al., 2017). Amplicons were generated using 5× Phusion High-Fidelity DNA Polymerase under these cycling conditions: (1) initial denaturation at 98 °C for thirty seconds, followed by (2) twenty-five cycles of 98 °C for ten seconds, 57 °C for thirty seconds, and 72° C. for thirty seconds, then (3) a final extension at 72 °C for five minutes. Gel electrophoresis was used to visualize amplicons and pooled in equimolar amounts. The pooled amplicon library was submitted to the Rhode Island Genomics and Sequencing Center at the University of Rhode Island (Kingston, RI, USA) for sequencing on the Illumina MiSeq platform. Amplicons were paired-end sequenced (2×250 bp) using the 600-cycle kit with standard protocols. Raw reads were deposited in the NCBI Sequence Read Archive (SRA).
16S sequencing analysis. Raw 16S rRNA reads were first demultiplexed with idemp. Quality filtering, trimming, de-noising with DADA2 (q2-dada2). […] Merging was done using the Qiime2 pipeline (version 2019.10). […] Ribosomal sequence variants were aligned with mafft (q2-alignment). […] Phylogenetic tree construction was done with fasttree2 (q2-phylogeny). […] Taxonomic assignment was conducted using the pre-trained Naive Bayes classifier and the q2-feature-classifier (Bokulich et al., 2018) trained on the SILVA 132 99% database. […] Alpha diversity (Shannon, Faith's phylogenetic diversity) and beta diversity (Bray-Curtis dissimilarity) were calculated using the phyloseq package (version 1.30.0) in R (version 3.6.2).
as §1
The inventors used metformin supplemented diets and supplemented the control low-fiber diet with 100 mg/kg of metformin hydrochloride (MPI Chemicals) during antibiotic treatment for five days.
The inventors then extracted DNA from the cecal contents of mice Day 1 and Day 5 following antibiotic treatment and used 16S rRNA sequencing to investigate changes in gut microbiome composition.

Compound | relative proportion of Bacteroidota and Verrucomicrobiota compared to controls (murine gut microbiome) | chemical redox of cecal contents [1] | NADH reporter fluorescence (NADH/NAD+ ratio) (E. coli (MG1655); E. coli, antibiotic treatment) | metformin levels in cecum, liver and serum [2] | protection from amoxicillin (kill curve) [3] | survival of bacteria challenged with amoxicillin (E. coli) | Desulfobacterota and Cyanobacteria phyla abundance (gut microbiome; all metformin treatment groups, low-fiber glucose diet and laboratory chow) | antibiotic-induced decrease in diversity (Shannon) (gut microbiome; glucose diet with metformin, Day 1 and Day 5 of antibiotic treatment) | Proteobacteria at Day 5 of antibiotic treatment (gut microbiome; glucose diet, metformin plus antibiotic, Day 5) | bacterial diversity, metformin alone (gut microbiome; glucose diet, no antibiotics, Day 5) | initial spike in Proteobacteria during antibiotic treatment (gut microbiome; glucose low-fiber diet, Day 1) | reduction in microbial diversity during antibiotic treatment (gut microbiome; laboratory chow with metformin) | NADH reporter fluorescence (NADH/NAD+ ratio), effect on the antibiotic-induced increase (E. coli (MG1655); E. coli treated with amoxicillin and metformin)
CC1(C)S[C@@H]2[C@H](NC(=O)[C@H](N)c3ccc(O)cc3)C(=O)N2[C@H]1C(=O)O [amoxicillin, Amoxicillin] | Bacteroidota receded and that of Verrucomicrobiota increased | increased the chemical redox | significantly increased fluorescence | – | – | – | – | – | – | – | – | – | –
CN(C)C(=N)N=C(N)N [metformin, Metformin hydrochloride] | – | – | – | significantly higher in the cecum compared to the liver and serum | significant protection from amoxicillin | improved the survival of bacteria | complete depletion | smaller decrease in diversity | bloom in Proteobacteria in the Moraxellaceae family | significant changes in bacterial diversity | prevented the initial spike in Proteobacteria | smaller reduction in microbial diversity | suppressed this increase
